Experimental data from patent US8470828B2, “Anellated pyridine compounds” (Hoffmann-La Roche Inc., priority 2010, dated 2013).

Key:
human D2 receptor = biological target: T1, human D2 receptor (Homo sapiens, UniProt P14416); test: Radioligand binding to cloned human D2 receptor expressed in HEK-293 EBNA cells ([3H]-spiperone); conditions: HEK293 EBNA cell membranes, approximately 0.7 nM [3H]-spiperone, 1 h at RT
T1 construct: expressed in transfected cells; host or cells: HEK293 EBNA cells, transient transfection; membrane preparation
T1 sequence (P14416 whole entry): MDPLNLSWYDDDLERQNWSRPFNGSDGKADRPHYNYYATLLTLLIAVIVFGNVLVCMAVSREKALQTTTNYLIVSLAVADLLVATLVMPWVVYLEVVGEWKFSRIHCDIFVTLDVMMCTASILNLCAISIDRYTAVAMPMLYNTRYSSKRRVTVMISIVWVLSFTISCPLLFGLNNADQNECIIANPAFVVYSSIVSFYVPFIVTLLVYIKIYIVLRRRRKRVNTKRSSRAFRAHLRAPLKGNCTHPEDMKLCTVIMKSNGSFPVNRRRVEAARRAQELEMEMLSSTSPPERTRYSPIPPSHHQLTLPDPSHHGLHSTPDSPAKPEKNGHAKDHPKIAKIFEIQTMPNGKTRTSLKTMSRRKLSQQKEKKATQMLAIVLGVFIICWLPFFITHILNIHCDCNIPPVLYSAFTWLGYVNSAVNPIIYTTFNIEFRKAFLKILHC
Description: (§1) HEK293 EBNA cells were transiently transfected with expression plasmids encoding for the human D2 or D3 or for the human 5-HT2A receptor, respectively. The cells were harvested 48 h post-transfection, washed three times with cold PBS and stored at −80° C. prior to use. The pellet was suspended in cold 50 mM Tris-HCl buffer comprising 10 mM EDTA (pH 7.4) and was homogenized with a Polytron (Kinematica A G, Basel, Switzerland) for 20-30 sec at 12.000 rpm. After centrifugation at 48.000×g for 30 min at 4° C., the pellet was resuspended in cold 10 mM Tris-HCl buffer comprising 0.1 mM EDTA (pH 7.4), homogenized, and centrifuged as above. This pellet was further resuspended in a smaller volume of ice cold 10 mM Tris-HCl buffer comprising 0.1 mM EDTA (pH 7.4) and homogenized with a Polytron for 20-30 sec at 12.000 rpm. The protein content of this homogenate was determined with the Bio-Rad (Bradford) Protein Assay (Biorad Laboratories GmbH, München, Germany) according to the instructions of the manufacturer using gamma globulin as the standard. This homogenate was stored at −80° C. in aliquots and thawed immediately prior to use.
(§2) Aliquots of membrane preparations were thawed at RT, resupended in assay buffer (D2, D3: 50 mM Tris-HCl, 120 mM NaCl, 5 mM MgCl2, 1 mM EDTA, 5 mM KCl, 1.5 mM CaCl2, pH=7.4; 5-HT2A: 50 mM Tris-HCl, 10 mM MgCl2, 1 mM EGTA, pH=7.4), homogenized with a Polytron for 20-30 sec at 12.000 rpm and adjusted to a final concentration of approximately 7.5 μg protein/well (D2, D3) and 15 μg protein/well (5-HT2A), respectively.
(§3) The binding affinity (Ki) of the compounds was determined using radioligand binding. Membranes were incubated in a total volume of 200 μl with a fixed concentration of radioligand (final concentration approximately 0.7 nM [^3H]-spiperone for D2, 0.5 nM [^3H]-spiperone for D3, and 1.1 nM [^3H]-ketanserin for 5-HT2A) and ten concentrations of test compound in ranging between 10 μM-0.1 nM for 1 h at RT. At the end of the incubation, the reaction mixtures were filtered on to unifilter 96-well white microplates with bonded GF/C filters (Packard BioScience, Zürich, Switzerland; preincubated for 1 h in 0.1% polyethylenimine (PEI) in assay buffer) with a Filtermate 196 harvester (Packard BioScience) and washed 3 times with cold assay buffer. The nonspecific binding was determined with equally composed reaction mixtures in the presence of 10 μM unlabelled spiperone. Per well 45 μl of Microscint 40 (Perkin Elmer, Schwerzenbach, Switzerland) was added, plates for sealed, shaken for 20 min and counted for 3 min on a Topcount Microplate Scintillation Counter (Can berra Packard S A, Zürich, Switzerland) with quenching correction.
(§4) The CPM value for each duplicate of a concentration of competing compound was averaged (y1), then the % specific binding was calculated according to the equation (((y1−non-specific)/(total binding−non-specific))×100). Graphs were plotted with the % specific binding using XLfit, a curve fitting program that iteratively plots the data using Levenberg-Marquardt algorithm. The single site competition analysis equation used was y=A+((B−A)/(1+((x/C)D))), where y is the % specific binding, A is the minimum y, B is the maximum y, C is the IC50, x is the log 10 of the concentration of the competing compound and D is the slope of the curve (the Hill Coefficient). […] The affinity constant (Ki) was calculated using the Cheng-Prusoff equation Ki=(IC50/1+([L]/Kd), where [L] is the concentration of radioligand and Kd is the dissociation constant of the radioligand at the receptor as determined by the saturation isotherm.

human D3 receptor = human D3 receptor (Homo sapiens, UniProt P35462); test: Radioligand binding to cloned human D3 receptor expressed in HEK-293 EBNA cells ([3H]-spiperone)
human D3 receptor, sequence (P35462 whole entry): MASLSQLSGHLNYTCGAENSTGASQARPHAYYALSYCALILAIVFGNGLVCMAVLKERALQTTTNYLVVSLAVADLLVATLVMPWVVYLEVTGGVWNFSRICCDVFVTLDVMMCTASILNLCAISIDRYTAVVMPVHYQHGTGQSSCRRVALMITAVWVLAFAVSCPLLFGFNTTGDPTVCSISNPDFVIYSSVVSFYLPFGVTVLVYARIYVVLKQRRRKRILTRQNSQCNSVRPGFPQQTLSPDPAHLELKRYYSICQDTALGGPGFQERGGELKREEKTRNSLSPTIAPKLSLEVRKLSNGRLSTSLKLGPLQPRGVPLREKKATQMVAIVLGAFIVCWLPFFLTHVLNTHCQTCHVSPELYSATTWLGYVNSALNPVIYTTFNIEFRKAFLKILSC
Description: as §1, §2, §3, §4

human 5-HT2A receptor = human 5-HT2A receptor (Homo sapiens, UniProt P28223); test: Radioligand binding to cloned human 5-HT2A receptor expressed in HEK-293 EBNA cells ([3H]-ketanserin)
human 5-HT2A receptor, sequence (P28223 whole entry): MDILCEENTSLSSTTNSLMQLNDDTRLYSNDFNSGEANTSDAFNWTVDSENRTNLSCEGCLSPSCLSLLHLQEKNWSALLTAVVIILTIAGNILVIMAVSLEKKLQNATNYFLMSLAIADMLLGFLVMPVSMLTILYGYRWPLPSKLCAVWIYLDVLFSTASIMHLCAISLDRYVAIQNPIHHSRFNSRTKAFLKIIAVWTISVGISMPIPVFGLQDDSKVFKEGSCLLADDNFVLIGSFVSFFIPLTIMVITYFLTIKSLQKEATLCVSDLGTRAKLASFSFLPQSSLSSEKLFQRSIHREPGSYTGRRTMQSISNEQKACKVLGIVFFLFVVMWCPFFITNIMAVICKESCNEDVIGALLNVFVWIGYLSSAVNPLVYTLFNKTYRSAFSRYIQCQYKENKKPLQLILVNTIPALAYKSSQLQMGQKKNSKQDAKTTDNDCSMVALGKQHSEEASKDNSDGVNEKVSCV

## CS(=O)(=O)CC(=O)N[C@H]1CC[C@H](CCN2CCN(c3nccc4c3OCC4)CC2)CC1 [Example 21, trans-N-(4-{2-[4-(2,3-Dihydro-furo[2,3-c]pyridin-7-yl)-piperazin-1-yl]-ethyl}-cyclohexyl)-2-methanesulfonyl-acetamide]
Human D2 receptor
  Ki: 680 nM
other
  melting point: 187 °C
Human D3 receptor
  Ki: 4.36 nM
Human 5-HT2A receptor
  Ki: 52.1 nM

## CC[C@@H](O)CC(=O)N[C@H]1CC[C@H](CCN2CCN(c3nccc4c3OCC4)CC2)CC1 [Example 103, (R)-3-Hydroxy-pentanoic acid trans-(4-{2-[4-(2,3-dihydro-furo[2,3-c]pyridin-7-yl)-piperazin-1-yl]-ethyl}-cyclohexyl)-amide]
Human D2 receptor
  Ki: 874 nM
other
  melting point: 146 °C
Human D3 receptor
  Ki: 20.1 nM
Human 5-HT2A receptor
  Ki: 113 nM

## O=C(N[C@H]1CC[C@H](CCN2CCN(c3nccc4c3OCC4)CC2)CC1)c1ccc(N2CCOCC2)nc1 [Example 73, trans-N-(4-{2-[4-(2,3-Dihydro-furo[2,3-c]pyridin-7-yl)-piperazin-1-yl]-ethyl}-cyclohexyl)-6-morpholin-4-yl-nicotinamide]
Human D2 receptor
  Ki: 479 nM
other
  melting point: 231 °C
Human D3 receptor
  Ki: 15 nM
Human 5-HT2A receptor
  Ki: 22.4 nM

## CC(C)=CC(=O)N[C@H]1CC[C@H](CCN2CCN(c3nccc4c3OCC4)CC2)CC1 [Example 88, 3-Methyl-but-2-enoic acid trans-(4-{2-[4-(2,3-dihydro-furo[2,3-c]pyridin-7-yl)-piperazin-1-yl]-ethyl}-cyclohexyl)-amide]
Human D2 receptor
  Ki: 201 nM
other
  melting point: 183.5 °C
Human D3 receptor
  Ki: 9.4 nM
Human 5-HT2A receptor
  Ki: 59.5 nM

## O=C(N[C@H]1CC[C@H](CCN2CCN(c3nccc4c3OCC4)CC2)CC1)c1ccc(-c2cccnc2)cc1 [Example 71, trans-N-(4-{2-[4-(2,3-Dihydro-furo[2,3-c]pyridin-7-yl)-piperazin-1-yl]-ethyl}-cyclohexyl)-4-pyridin-3-yl-benzamide]
Human D2 receptor
  Ki: 270 nM
other
  melting point: 235 °C
Human D3 receptor
  Ki: 7.61 nM
Human 5-HT2A receptor
  Ki: 19.1 nM

## O=C(CC1CC1)N[C@H]1CC[C@H](CCN2CCN(c3nccc4c3OCC4)CC2)CC1 [Example 30, trans-2-Cyclopropyl-N-(4-{2-[4-(2,3-dihydro-furo[2,3-c]pyridin-7-yl)-piperazin-1-yl]-ethyl}-cyclohexyl)-acetamide]
Human D2 receptor
  Ki: 184 nM
other
  melting point: 197.5 °C
Human D3 receptor
  Ki: 3.34 nM
Human 5-HT2A receptor
  Ki: 33.3 nM

## O=C(Cc1noc2ccccc12)N[C@H]1CC[C@H](CCN2CCN(c3nccc4c3OCC4)CC2)CC1 [Example 75, trans-2-Benzo[d]isoxazol-3-yl-N-(4-{2-[4-(2,3-dihydro-furo[2,3-c]pyridin-7-yl)-piperazin-1-yl]-ethyl}-cyclohexyl)-acetamide]
Human D2 receptor
  Ki: 628 nM
other
  melting point: 211 °C
Human D3 receptor
  Ki: 6.28 nM
Human 5-HT2A receptor
  Ki: 45.7 nM

## CC(C)(C)C(=O)N[C@H]1CC[C@H](CCN2CCN(c3nccc4c3OCC4)CC2)CC1 [Example 90, trans-N-(4-{2-[4-(2,3-Dihydro-furo[2,3-c]pyridin-7-yl)-piperazin-1-yl]-ethyl}-cyclohexyl)-2,2-dimethyl-propionamide]
Human D2 receptor
  Ki: 671 nM
other
  melting point: 194.5 °C
Human D3 receptor
  Ki: 50.5 nM
Human 5-HT2A receptor
  Ki: 48.9 nM

## CC(C)(C)c1ccc(C(=O)N[C@H]2CC[C@H](CCN3CCN(c4nccc5c4OCC5)CC3)CC2)cc1 [Example 56, trans-4-tert-Butyl-N-(4-{2-[4-(2,3-dihydro-furo[2,3-c]pyridin-7-yl)-piperazin-1-yl]-ethyl}-cyclohexyl)-benzamide]
Human D2 receptor
  Ki: 1930 nM
other
  melting point: 183 °C
Human D3 receptor
  Ki: 79.5 nM
Human 5-HT2A receptor
  Ki: 67.4 nM

## O=CN[C@H]1CC[C@H](CCN2CCN(c3nccc4c3OCC4)CC2)CC1 [Example 53, trans-N-(4-{2-[4-(2,3-Dihydro-furo[2,3-c]pyridin-7-yl)-piperazin-1-yl]-ethyl}-cyclohexyl)-formamide]
Human D2 receptor
  Ki: 1110 nM
other
  melting point: 153.5 °C
Human D3 receptor
  Ki: 23.1 nM
Human 5-HT2A receptor
  Ki: 70.2 nM

## O=C(N[C@H]1CC[C@H](CCN2CCN(c3nccc4c3OCC4)CC2)CC1)c1ccc2c(c1)OCO2 [Example 60, Benzo[1,3]dioxole-5-carboxylic acid trans-(4-{2-[4-(2,3-dihydro-furo[2,3-c]pyridin-7-yl)-piperazin-1-yl]-ethyl}-cyclohexyl)-amide]
Human D2 receptor
  Ki: 348 nM
other
  melting point: 213.5 °C
Human D3 receptor
  Ki: 7.32 nM
Human 5-HT2A receptor
  Ki: 23 nM

## CN1CCN(c2ccc(C(=O)N[C@H]3CC[C@H](CCN4CCN(c5nccc6c5OCC6)CC4)CC3)cc2)CC1 [Example 68, trans-N-(4-{2-[4-(2,3-Dihydro-furo[2,3-c]pyridin-7-yl)-piperazin-1-yl]-ethyl}-cyclohexyl)-4-(4-methyl-piperazin-1-yl)-benzamide]
Human D2 receptor
  Ki: 120 nM
other
  melting point: 235.5 °C
Human D3 receptor
  Ki: 6 nM
Human 5-HT2A receptor
  Ki: 4.86 nM

## O=C(N[C@H]1CC[C@H](CCN2CCN(c3nccc4c3OCC4)CC2)CC1)C1CC1(F)F (stereo partly drawn) [Example 85, 2,2-Difluoro-cyclopropanecarboxylic acid trans-(4-{2-[4-(2,3-dihydro-furo[2,3-c]pyridin-7-yl)-piperazin-1-yl]-ethyl}-cyclohexyl)-amide]
Human D2 receptor
  Ki: 616 nM
other
  melting point: 227 °C
Human D3 receptor
  Ki: 9.89 nM
Human 5-HT2A receptor
  Ki: 60.2 nM

## O=C(CC1CCCO1)N[C@H]1CC[C@H](CCN2CCN(c3nccc4c3OCC4)CC2)CC1 (mixture of isomers) [Example 29, trans-N-(4-{2-[4-(2,3-Dihydro-furo[2,3-c]pyridin-7-yl)-piperazin-1-yl]-ethyl}-cyclohexyl)-2-rac-(tetrahydro-furan-2-yl)-acetamide]
Human D2 receptor
  Ki: 354 nM
other
  melting point: 173.5 °C
Human D3 receptor
  Ki: 9.31 nM
Human 5-HT2A receptor
  Ki: 45.2 nM

## O=C(N[C@H]1CC[C@H](CCN2CCN(c3nccc4c3OCC4)CC2)CC1)C1CCCOC1 (mixture of isomers) [Example 97, (RS)-Tetrahydro-pyran-3-carboxylic acid trans-(4-{2-[4-(2,3-dihydro-furo[2,3-c]pyridin-7-yl)-piperazin-1-yl]-ethyl}-cyclohexyl)-amide]
Human D2 receptor
  Ki: 604 nM
other
  melting point: 203 °C
Human D3 receptor
  Ki: 23.1 nM
Human 5-HT2A receptor
  Ki: 27.8 nM

## N#Cc1ccc(C(=O)N[C@H]2CC[C@H](CCN3CCN(c4nccc5c4OCC5)CC3)CC2)cc1 [Example 72, trans-4-Cyano-N-(4-{2-[4-(2,3-dihydro-furo[2,3-c]pyridin-7-yl)-piperazin-1-yl]-ethyl}-cyclohexyl)-benzamide]
Human D2 receptor
  Ki: 633 nM
other
  melting point: 262.5 °C
Human D3 receptor
  Ki: 17.8 nM
Human 5-HT2A receptor
  Ki: 24.6 nM

## O=C(C[C@H]1COCCO1)N[C@H]1CC[C@H](CCN2CCN(c3nccc4c3OCC4)CC2)CC1 [Example 32, trans-N-(4-{2-[4-(2,3-Dihydro-furo[2,3-c]pyridin-7-yl)-piperazin-1-yl]-ethyl}-cyclohexyl)-2-(S)[1,4]dioxan-2-yl-acetamide]
Human D2 receptor
  Ki: 822 nM
other
  melting point: 181 °C
Human D3 receptor
  Ki: 10.6 nM
Human 5-HT2A receptor
  Ki: 18.9 nM

## CC(=O)N[C@H]1CC[C@H](CCN2CCN(c3nccc4ccsc34)CC2)CC1 [Example 1, N-{trans-4-[2-(4-Thieno[2,3-c]pyridin-7-yl-piperazin-1-yl)-ethyl]-cyclohexyl}-acetamide]
Human D2 receptor
  Ki: 392 nM
Human D3 receptor
  Ki: 2.3 nM
Human 5-HT2A receptor
  Ki: 11.9 nM

## CC(=O)N[C@H]1CC[C@H](CCN2CCN(c3nccc4c3OCC4)CC2)CC1 [Example 6, trans-N-(4-{2-[4-(2,3-Dihydro-furo[2,3-c]pyridin-7-yl)-piperazin-1-yl]-ethyl}-cyclohexyl)-acetamide]
Human D2 receptor
  Ki: 472 nM
other
  melting point: 195 °C
Human D3 receptor
  Ki: 4 nM
Human 5-HT2A receptor
  Ki: 58.2 nM

## O=C(CC1COCCO1)N[C@H]1CC[C@H](CCN2CCN(c3nccc4c3OCC4)CC2)CC1 (stereo partly drawn) [Example 19, trans-N-(4-{2-[4-(2,3-Dihydro-furo[2,3-c]pyridin-7-yl)-piperazin-1-yl]-ethyl}-cyclohexyl)-2-[1,4]dioxan-2-yl-acetamide]
Human D2 receptor
  Ki: 1220 nM
other
  melting point: 194.5 °C
Human D3 receptor
  Ki: 8.9 nM
Human 5-HT2A receptor
  Ki: 29.7 nM

## CO[C@H]1CC[C@H](CC(=O)N[C@H]2CC[C@H](CCN3CCN(c4nccc5ccsc45)CC3)CC2)CC1 [Example 4, 2-(trans-4-Methoxy-cyclohexyl)-N-{trans-4-[2-(4-thieno[2,3-c]pyridin-7-yl-piperazin-1-yl)-ethyl]-cyclohexyl}-acetamide]
Human D2 receptor
  Ki: 739 nM
Human D3 receptor
  Ki: 14 nM
Human 5-HT2A receptor
  Ki: 9.6 nM

## CCC(=O)N[C@H]1CC[C@H](CCN2CCN(c3nccc4ccsc34)CC2)CC1 [Example 2, N-{trans-4-[2-(4-Thieno[2,3-c]pyridin-7-yl-piperazin-1-yl)-ethyl]-cyclohexyl}-propionamide]
Human D2 receptor
  Ki: 229 nM
Human D3 receptor
  Ki: 1.9 nM
Human 5-HT2A receptor
  Ki: 9.2 nM

## COCCC(=O)N[C@H]1CC[C@H](CCN2CCN(c3nccc4ccsc34)CC2)CC1 [Example 3, 3-Methoxy-N-{trans-4-[2-(4-thieno[2,3-c]pyridin-7-yl-piperazin-1-yl)-ethyl]-cyclohexyl}-propionamide]
Human D2 receptor
  Ki: 401 nM
Human D3 receptor
  Ki: 1.9 nM
Human 5-HT2A receptor
  Ki: 10.6 nM

## O=C(Cc1ccc2c(c1)OCO2)N[C@H]1CC[C@H](CCN2CCN(c3nccc4c3OCC4)CC2)CC1 [Example 80, trans-2-Benzo[1,3]dioxol-5-yl-N-(4-{2-[4-(2,3-dihydro-furo[2,3-c]pyridin-7-yl)-piperazin-1-yl]-ethyl}-cyclohexyl)-acetamide]
other
  melting point: 187 °C
Human D3 receptor
  Ki: 6.08 nM
Human 5-HT2A receptor
  Ki: 48.5 nM

## CO[C@@H]1CC[C@@H](CC(=O)N[C@H]2CC[C@H](CCN3CCN(c4nccc5ccsc45)CC3)CC2)C1 (racemic) [Example 5, 2-(trans-3-Methoxy-cyclopentyl)-N-{trans-4-[2-(4-thieno[2,3-c]pyridin-7-yl-piperazin-1-yl)-ethyl]cyclohexyl}-acetamide]
Human D2 receptor
  Ki: 433 nM
Human D3 receptor
  Ki: 10 nM
Human 5-HT2A receptor
  Ki: 7.7 nM
